Drawing on patent US10294234B2, “HIV inhibitor compounds” (priority 2017, dated 2019), this text covers EC50 for 13 compounds.

The test system of one test is HIV-1 (IIIB) in MT-4 cells. Description: MT-4 HIV assay. The note with it: Human immunodeficiency virus 1, MT4, 120 h. The class given is cell-based. The method, boiled down:
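Antiviral activity was read by Cell Titer Glo after a 5-day, 37 °C culture of MT-4 cells pre-infected with a 1:250 dilution of HIV-1 (IIIB). Compounds were tested as threefold dilution series in complete RPMI. Controls were no drug, mock infection and 5 uM AZT.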
The EC50 is the concentration at which the effect is half-maximal. On to `COC(=O)N[C@H](C(=O)N[C@@H](Cc1ccc(-c2cnc(N3C[C@H]4C[C@@H]3CN4C3COC3)nc2)cc1)[C@@H](O)CN(Cc1c(F)cc(-c2ccn(CC(F)F)n2)cc1F)NC(=O)[C@@H](NC(=O)OC)C(C)(C)C(F)(F)F)C(C)(C)C(F)(F)F` [Example 191, Methyl ((5S,8S,9S,14S)-11-(4-(1-(2,2-difluoroethyl)-1H-pyrazol-3-yl)-2,6-difluorobenzyl)-16,16,16-trifluoro-9-hydroxy-15,15-dimethyl-8-(4-(2-((1R,4R)-5-(oxetan-3-yl)-2,5-diazabicyclo[2.2.1]heptan-2-yl)pyrimidin-5-yl)benzyl)-3,6,13-trioxo-5-(1,1,1-trifluoro-2-methylpropan-2-yl)-2-oxa-4,7,11,12-tetraazahexadecan-14-yl)carbamate], for which the EC50 was determined as 17.4 nM.

As for `COC(=O)N[C@H](C(=O)N[C@@H](Cc1ccc(-c2ccc(N3C[C@H]4C[C@@H]3CN4C3COC3)nc2)cc1)[C@@H](O)CN(Cc1c(F)cc(-c2ccn(C3CC3)n2)cc1F)NC(=O)[C@@H](NC(=O)OC)C(C)(C)C(F)(F)F)C(C)(C)C(F)(F)F` [Example 194, Methyl ((5S,8S,9S,14S)-11-(4-(1-cyclopropyl-1H-pyrazol-3-yl)-2,6-difluorobenzyl)-16,16,16-trifluoro-9-hydroxy-15,15-dimethyl-8-(4-(6-((1R,4R)-5-(oxetan-3-yl)-2,5-diazabicyclo[2.2.1]heptan-2-yl)pyridin-3-yl)benzyl)-3,6,13-trioxo-5-(1,1,1-trifluoro-2-methylpropan-2-yl)-2-oxa-4,7,11,12-tetraazahexadecan-14-yl)carbamate], a half-maximal response (EC50) required 7.2 nM.

Regarding `COC(=O)N[C@H](C(=O)N[C@@H](Cc1ccc(-c2ccc(N3C[C@H]4C[C@@H]3CN4C3COC3)nc2)cc1)[C@@H](O)CN(Cc1c(F)cc(-c2ccn(C(F)F)n2)cc1F)NC(=O)[C@@H](NC(=O)OC)C(C)(C)C(F)(F)F)C(C)(C)C(F)(F)F` [Example 196, Methyl ((5S,8S,9S,14S)-11-(4-(1-(difluoromethyl)-1H-pyrazol-3-yl)-2,6-difluorobenzyl)-16,16,16-trifluoro-9-hydroxy-15,15-dimethyl-8-(4-(6-((1R,4R)-5-(oxetan-3-yl)-2,5-diazabicyclo[2.2.1]heptan-2-yl)pyridin-3-yl)benzyl)-3,6,13-trioxo-5-(1,1,1-trifluoro-2-methylpropan-2-yl)-2-oxa-4,7,11,12-tetraazahexadecan-14-yl)carbamate], the EC50 turned out to be 10.5 nM.

The same test, now with this note: Human immunodeficiency virus 1, MT4, 120 h; HIV-1 (IIIB), MT-4 cells, 5 days, Cell Titer Glo; read-out: EC50.
Take `COC(=O)N[C@H](C(=O)N[C@@H](Cc1ccc(-c2cnc(N3CC4CCC(C3)N4C3COC3)nc2)cc1)[C@@H](O)CN(Cc1c(F)cc(-c2cn(C(F)F)cn2)cc1F)NC(=O)[C@@H](NC(=O)OC)C(C)(C)C(F)(F)F)C(C)(C)C(F)(F)F` [Example 189, Methyl ((5S,8S,9S,14S)-11-(4-(1-(difluoromethyl)-1H-imidazol-4-yl)-2,6-difluorobenzyl)-16,16,16-trifluoro-9-hydroxy-15,15-dimethyl-8-(4-(2-(8-(oxetan-3-yl)-3,8-diazabicyclo[3.2.1]octan-3-yl)pyrimidin-5-yl)benzyl)-3,6,13-trioxo-5-(1,1,1-trifluoro-2-methylpropan-2-yl)-2-oxa-4,7,11,12-tetraazahexadecan-14-yl)carbamate]: the EC50 was found to be 5.47 nM.

Turning to `COC(=O)N[C@H](C(=O)NN(Cc1c(F)cc(-c2cn(C(F)F)cn2)cc1F)C[C@H](O)[C@H](Cc1ccc(-c2cnc(N3CC4CCC(C3)N4C3COC3)nc2)cc1)NC(=O)[C@@H](NC(=O)OC)C(C)(C)C(F)(F)F)C(C)(C)C` [Example 190, methyl ((5S,8S,9S,14S)-11-(4-(1-(difluoromethyl)-1H-imidazol-4-yl)-2,6-difluorobenzyl)-9-hydroxy-15,15-dimethyl-8-(4-(2-(8-(oxetan-3-yl)-3,8-diazabicyclo[3.2.1]octan-3-yl)pyrimidin-5-yl)benzyl)-3,6,13-trioxo-5-(1,1,1-trifluoro-2-methylpropan-2-yl)-2-oxa-4,7,11,12-tetraazahexadecan-14-yl)carbamate], the 50% effective concentration (EC50) came to 7.06 nM.

Consider `COC(=O)N[C@H](C(=O)NN(Cc1c(F)cc(-c2ccn(CC(F)F)n2)cc1F)C[C@H](O)[C@H](Cc1ccc(-c2cnc(N3CC4CCC(C3)N4C3COC3)nc2)cc1)NC(=O)[C@@H](NC(=O)OC)C(C)(C)C(F)(F)F)C(C)(C)C` [Example 193, Methyl ((5S,8S,9S,14S)-11-(4-(1-(2,2-difluoroethyl)-1H-pyrazol-3-yl)-2,6-difluorobenzyl)-9-hydroxy-15,15-dimethyl-8-(4-(2-(8-(oxetan-3-yl)-3,8-diazabicyclo[3.2.1]octan-3-yl)pyrimidin-5-yl)benzyl)-3,6,13-trioxo-5-(1,1,1-trifluoro-2-methylpropan-2-yl)-2-oxa-4,7,11,12-tetraazahexadecan-14-yl)carbamate], for which the EC50 stood at 2.78 nM.

In the case of `COC(=O)N[C@H](C(=O)N[C@@H](Cc1ccc(-c2ccc(N3CC4CC(C3)N4C3COC3)nc2)cc1)[C@@H](O)CN(Cc1c(F)cc(-c2ccn(C(F)F)n2)cc1F)NC(=O)[C@@H](NC(=O)OC)C(C)(C)C(F)(F)F)C(C)(C)C(F)(F)F` [Example 202, Methyl ((5S,8S,9S,14S)-11-(4-(1-(difluoromethyl)-1H-pyrazol-3-yl)-2,6-difluorobenzyl)-16,16,16-trifluoro-9-hydroxy-15,15-dimethyl-8-(4-(6-(6-(oxetan-3-yl)-3,6-diazabicyclo[3.1.1]heptan-3-yl)pyridin-3-yl)benzyl)-3,6,13-trioxo-5-(1,1,1-trifluoro-2-methylpropan-2-yl)-2-oxa-4,7,11,12-tetraazahexadecan-14-yl)carbamate], the EC50 turned out to be 9.67 nM.

Turning to `COC(=O)N[C@H](C(=O)N[C@@H](Cc1ccc(-c2ccc(N3CC4CCC(C3)N4C3COC3)nc2)cc1)[C@@H](O)CN(Cc1c(F)cc(-c2nnc(C3CC3)o2)cc1F)NC(=O)[C@@H](NC(=O)OC)C(C)(C)C(F)(F)F)C(C)(C)C(F)(F)F` [Example 205, Methyl ((5S,8S,9S,14S)-11-(4-(5-cyclopropyl-1,3,4-oxadiazol-2-yl)-2,6-difluorobenzyl)-16,16,16-trifluoro-9-hydroxy-15,15-dimethyl-8-(4-(6-(8-(oxetan-3-yl)-3,8-diazabicyclo[3.2.1]octan-3-yl)pyridin-3-yl)benzyl)-3,6,13-trioxo-5-(1,1,1-trifluoro-2-methylpropan-2-yl)-2-oxa-4,7,11,12-tetraazahexadecan-14-yl)carbamate], the concentration for a half-maximal effect (EC50) was determined as 5.25 nM.

Turning to `COC(=O)N[C@H](C(=O)N[C@@H](Cc1ccc(-c2cnn(C(F)F)c2)cc1)[C@@H](O)CN(Cc1c(F)cc(-c2cnn(C(F)F)c2)cc1F)NC(=O)[C@@H](NC(=O)OC)C(C)(C)C(F)(F)F)C(C)(C)C(F)(F)F` [Example 211, Methyl ((5S,8S,9S,14S)-11-(4-(1-(difluoromethyl)-1H-pyrazol-4-yl)-2,6-difluorobenzyl)-8-(4-(1-(difluoromethyl)-1H-pyrazol-4-yl)benzyl)-16,16,16-trifluoro-9-hydroxy-15,15-dimethyl-3,6,13-trioxo-5-(1,1,1-trifluoro-2-methylpropan-2-yl)-2-oxa-4,7,11,12-tetraazahexadecan-14-yl)carbamate], the EC50 came to 5.75 nM.

For `CC(C)([C@H](NC(=O)C1CC1)C(=O)N[C@@H](Cc1ccc(-c2cnn(C(F)F)c2)cc1)[C@@H](O)CN(Cc1c(F)cc(-c2ccn(C(F)F)n2)cc1F)NC(=O)[C@@H](NC(=O)C1CC1)C(C)(C)C(F)(F)F)C(F)(F)F` [Example 213, N—((S)-1-(2-((2S,3S)-3-((S)-2-(cyclopropanecarboxamido)-4,4,4-trifluoro-3,3-dimethylbutanamido)-4-(4-(1-(difluoromethyl)-1H-pyrazol-4-yl)phenyl)-2-hydroxybutyl)-2-(4-(1-(difluoromethyl)-1H-pyrazol-3-yl)-2,6-difluorobenzyl)hydrazinyl)-4,4,4-trifluoro-3,3-dimethyl-1-oxobutan-2-yl)cyclopropanecarboxamide], the EC50 came to 4.86 nM.

As to `CCC(=O)N[C@H](C(=O)N[C@@H](Cc1ccc(-c2cnn(C(F)F)c2)cc1)[C@@H](O)CN(Cc1c(F)cc(-c2cnn(C(F)F)c2)cc1F)NC(=O)[C@@H](NC(=O)CC)C(C)(C)C(F)(F)F)C(C)(C)C(F)(F)F` [Example 215, (S)—N-((2S,3S)-4-(1-(4-(1-(difluoromethyl)-1H-pyrazol-4-yl)-2,6-difluorobenzyl)-2-((S)-4,4,4-trifluoro-3,3-dimethyl-2-propionamidobutanoyl)hydrazinyl)-1-(4-(1-(difluoromethyl)-1H-pyrazol-4-yl)phenyl)-3-hydroxybutan-2-yl)-4,4,4-trifluoro-3,3-dimethyl-2-propionamidobutanamide], the concentration for a half-maximal effect (EC50) worked out at 18.2 nM.

Regarding `CC1(C(=O)N[C@H](C(=O)N[C@@H](Cc2ccc(-c3cnn(C(F)F)c3)cc2)[C@@H](O)CN(Cc2c(F)cc(-c3cnn(C(F)F)c3)cc2F)NC(=O)[C@@H](NC(=O)C2(C)CC2)C(C)(C)C(F)(F)F)C(C)(C)C(F)(F)F)CC1` [Example 216, N—((S)-1-(2-(4-(1-(difluoromethyl)-1H-pyrazol-4-yl)-2,6-difluorobenzyl)-2-((2S,3S)-4-(4-(1-(difluoromethyl)-1H-pyrazol-4-yl)phenyl)-2-hydroxy-3-((S)-4,4,4-trifluoro-3,3-dimethyl-2-(1-methylcyclopropane-1-carboxamido)butanamido)butyl)hydrazinyl)-4,4,4-trifluoro-3,3-dimethyl-1-oxobutan-2-yl)-1-methylcyclopropane-1-carboxamide], the EC50 came to 114 nM.

On to `CC(=O)N[C@H](C(=O)N[C@@H](Cc1ccc(-c2cnn(C(F)F)c2)cc1)[C@@H](O)CN(Cc1c(F)cc(-c2cnn(C(F)F)c2)cc1F)NC(=O)[C@@H](NC(C)=O)C(C)(C)C(F)(F)F)C(C)(C)C(F)(F)F` [Example 217, (S)-2-acetamido-N-((2S,3S)-4-(2-((S)-2-acetamido-4,4,4-trifluoro-3,3-dimethylbutanoyl)-1-(4-(1-(difluoromethyl)-1H-pyrazol-4-yl)-2,6-difluorobenzyl)hydrazinyl)-1-(4-(1-(difluoromethyl)-1H-pyrazol-4-yl)phenyl)-3-hydroxybutan-2-yl)-4,4,4-trifluoro-3,3-dimethylbutanamide], for which the half-maximal effective concentration (EC50) stood at 113 nM.
